{"source": "patent US20260125374A1", "about": "“PI3K-ALPHA INHIBITORS AND METHODS OF MAKING AND USING THE SAME” (Relay Therapeutics, Inc., priority 2021, published 2026)", "key": {"Hygroscopicity by DVS": {"experiment": "Hygroscopicity by DVS", "type": "physicochemical", "details": "for 1st Desorp. (%) / 1st Sorp. (%) / 2nd Desorp. (%) / 2nd Sorp. (%): DVS 25° C.", "method": "• Method 1 (for I-1 Form A and I-3 Form A) • Instrument Intrinsic, Advantage or Adventure • Total gas flow 200 sccm • Oven temperature 25° C. • Solvent Water • Method Cycle: 40-0-95-0-40% RH • Stage Step: 10% • Equilibrium: 0.002 dm/dt (%/min) • Minimum dm/dt stability duration: 60 min • Maximum dm/dt stage time: 360 min • Method 2 (for I-4 Form A) • Instrument Intrinsic, Advantage or Adventure • Total gas flow 200 sccm • Oven temperature 25° C. • Solvent Water • Method Cycle: 40-95-0-95-40% RH • Stage Step: 10% • Equilibrium: 0.002 dm/dt (%/min) • Minimum dm/dt stability duration: 60 min • Maximum dm/dt stage time: 360 min\nI-1 Form A is hygroscopic. It absorbs about 5.5% water by weight from 40% RH to 95% RH. […] It absorbs about 40% water by weight from 40% RH to 95% RH. Form changed after the DVS test. […] It starts to absorb water when RH>40% and potential hydrate form generates at high humidity based on DVS data. The sorption and desorption are reversible.\nWater sorption and desorption behavior of I-1 Form A, I-3 Form A, and I-4 Form A was investigated by DVS at 25° C. with a cycle of 40-0-95-0-40% RH, dm/dt 0.002, min. equilibration time 60 min and max. equilibration time 360 min. XRPD was measured after the DVS test to determine form change."}, "[1]": {"experiment": "Salt screening (XRPD, chiral purity of hits)", "type": "physicochemical", "method": "Based on the pKa of I-1 free form, 23 counter ions were selected as salt/cocrystal forming agents. Methanol, acetone and isopropyl acetate were used as screening solvents. 1.0 equivalent of selected counter ions/coformers was applied for salt screening. Slurry equilibration, slow evaporation and anti-solvent addition were used as crystallization methods. In total, about 70 screening experiments were conducted.\nAbout 50 mg of I-1 Form A were added to a suitable amount of solvent and 1.0 equivalent of counter ions were added under stirring at 50° C. for 2 hours and then at 25° C. for at least 12 hours. MeOH, acetone and IPAc were used as screening solvents.\nObtained suspensions were taken out and centrifuged. Solids obtained were analyzed by XRPD and salt screening results were summarized in Table 5.1, Table 5.2, and Table 5.3."}}}
{"smiles": "N#Cc1c(-c2cc(NC(=O)c3cc(F)cc(C(F)(F)F)c3)c3c(c2)C(=O)N[C@H]3c2cc(F)ccc2Cl)ccc2ncnn12", "note": "[Compound I-1, (R)-N-(3-(2-chloro-5-fluorophenyl)-6-(5-cyano-[1,2,4]triazolo[1,5-a]pyridin-6-yl)-1-oxoisoindolin-4-yl)-3-fluoro-5-(trifluoromethyl)benzamide]", "values": [{"measurement": "1st Desorp. (%)", "setting": "Hygroscopicity by DVS; 0% RH, listed as I-1 Form A", "value": 0.17, "unit": "%"}, {"measurement": "1st Sorp. (%)", "setting": "Hygroscopicity by DVS; 0% RH, listed as I-1 Form A", "value": 0.17, "unit": "%"}, {"measurement": "2nd Desorp. (%)", "setting": "Hygroscopicity by DVS; 0% RH, listed as I-1 Form A", "value": 0.001, "unit": "%"}, {"measurement": "2nd Sorp. (%)", "setting": "Hygroscopicity by DVS; 0% RH, listed as I-1 Form A", "value": 0.001, "unit": "%"}, {"measurement": "2nd Desorp. (%)", "setting": "Hygroscopicity by DVS; 10% RH", "value": 0.11, "unit": "%"}, {"measurement": "1st Desorp. (%)", "setting": "Hygroscopicity by DVS; 10% RH, listed as I-1 Form A", "value": 0.25, "unit": "%"}, {"measurement": "1st Sorp. (%)", "setting": "Hygroscopicity by DVS; 10% RH, listed as I-1 Form A", "value": 0.23, "unit": "%"}, {"measurement": "2nd Sorp. (%)", "setting": "Hygroscopicity by DVS; 10% RH, listed as I-1 Form A", "value": 0.08, "unit": "%"}, {"measurement": "1st Desorp. (%)", "setting": "Hygroscopicity by DVS; 20% RH, listed as I-1 Form A", "value": 0.33, "unit": "%"}, {"measurement": "1st Sorp. (%)", "setting": "Hygroscopicity by DVS; 20% RH, listed as I-1 Form A", "value": 0.29, "unit": "%"}, {"measurement": "2nd Desorp. (%)", "setting": "Hygroscopicity by DVS; 20% RH, listed as I-1 Form A", "value": 0.21, "unit": "%"}, {"measurement": "2nd Sorp. (%)", "setting": "Hygroscopicity by DVS; 20% RH, listed as I-1 Form A", "value": 0.15, "unit": "%"}, {"measurement": "1st Desorp. (%)", "setting": "Hygroscopicity by DVS; 30% RH, listed as I-1 Form A", "value": 0.42, "unit": "%"}, {"measurement": "1st Sorp. (%)", "setting": "Hygroscopicity by DVS; 30% RH, listed as I-1 Form A", "value": 0.35, "unit": "%"}, {"measurement": "2nd Desorp. (%)", "setting": "Hygroscopicity by DVS; 30% RH, listed as I-1 Form A", "value": 0.33, "unit": "%"}, {"measurement": "2nd Sorp. (%)", "setting": "Hygroscopicity by DVS; 30% RH, listed as I-1 Form A", "value": 0.22, "unit": "%"}, {"measurement": "1st Desorp. (%)", "setting": "Hygroscopicity by DVS; 40% RH, listed as I-1 Form A", "value": 0.52, "unit": "%"}, {"measurement": "1st Sorp. (%)", "setting": "Hygroscopicity by DVS; 40% RH, listed as I-1 Form A", "value": 0.42, "unit": "%"}, {"measurement": "2nd Desorp. (%)", "setting": "Hygroscopicity by DVS; 40% RH, listed as I-1 Form A", "value": 0.51, "unit": "%"}, {"measurement": "2nd Sorp. (%)", "setting": "Hygroscopicity by DVS; 40% RH, listed as I-1 Form A", "value": 0.32, "unit": "%"}, {"measurement": "1st Sorp. (%)", "setting": "Hygroscopicity by DVS; 50% RH, listed as I-1 Form A", "value": 0.54, "unit": "%"}, {"measurement": "2nd Desorp. (%)", "setting": "Hygroscopicity by DVS; 50% RH, listed as I-1 Form A", "value": 0.92, "unit": "%"}, {"measurement": "1st Sorp. (%)", "setting": "Hygroscopicity by DVS; 60% RH, listed as I-1 Form A", "value": 0.71, "unit": "%"}, {"measurement": "2nd Desorp. (%)", "setting": "Hygroscopicity by DVS; 60% RH, listed as I-1 Form A", "value": 1.30, "unit": "%"}, {"measurement": "1st Sorp. (%)", "setting": "Hygroscopicity by DVS; 70% RH, listed as I-1 Form A", "value": 1.02, "unit": "%"}, {"measurement": "2nd Desorp. (%)", "setting": "Hygroscopicity by DVS; 70% RH, listed as I-1 Form A", "value": 1.62, "unit": "%"}, {"measurement": "1st Sorp. (%)", "setting": "Hygroscopicity by DVS; 80% RH, listed as I-1 Form A", "value": 1.84, "unit": "%"}, {"measurement": "2nd Desorp. (%)", "setting": "Hygroscopicity by DVS; 80% RH, listed as I-1 Form A", "value": 2.15, "unit": "%"}, {"measurement": "1st Sorp. (%)", "setting": "Hygroscopicity by DVS; 90% RH, listed as I-1 Form A", "value": 3.24, "unit": "%"}, {"measurement": "2nd Desorp. (%)", "setting": "Hygroscopicity by DVS; 90% RH, listed as I-1 Form A", "value": 3.56, "unit": "%"}, {"measurement": "1st Sorp. (%)", "setting": "Hygroscopicity by DVS; 95% RH, listed as I-1 Form A", "value": 5.90, "unit": "%"}, {"measurement": "2nd Desorp. (%)", "setting": "Hygroscopicity by DVS; 95% RH, listed as I-1 Form A", "value": 5.90, "unit": "%"}, {"measurement": "hygroscopicity", "setting": "Hygroscopicity by DVS; DVS at 25° C., listed as I-1 Form A", "value": "hygroscopic"}, {"measurement": "water absorbed", "setting": "Hygroscopicity by DVS; from 40% RH to 95% RH, 25° C., listed as I-1 Form A", "value": "about 5.5 % water by weight"}, {"measurement": "form after the DVS test (XRPD)", "setting": "Hygroscopicity by DVS; listed as I-1 Form A", "value": "no form and crystallinity change"}, {"measurement": "Salt screening result (slurry crystallization)", "setting": "[1]; 1.0 equiv. HCl, Isopropyl acetate (second block of table)", "value": "clear solution"}, {"measurement": "Salt screening result (slurry crystallization)", "setting": "[1]; 1.0 equiv. HCl, MeOH", "value": "− (I-1 Form A) (Free form, counter ions, or physical mixtures)"}, {"measurement": "Salt screening result (slurry crystallization)", "setting": "[1]; 1.0 equiv. Hydrobromic acid, Acetone", "value": "thin suspension"}, {"measurement": "Salt screening result (anti-solvent)", "setting": "[1]; 1.0 equiv. Hydrobromic acid, Acetone/MTBE", "value": "thin suspension"}, {"measurement": "Salt screening result (anti-solvent)", "setting": "[1]; 1.0 equiv. Hydrobromic acid, IPAc/MTBE", "value": "thin suspension"}, {"measurement": "Salt screening result (slurry crystallization)", "setting": "[1]; 1.0 equiv. Hydrobromic acid, Isopropyl acetate", "value": "clear solution"}, {"measurement": "Salt screening result (slurry crystallization)", "setting": "[1]; 1.0 equiv. Hydrobromic acid, MeOH", "value": "− (I-1 Form A) (Free form, counter ions, or physical mixtures)"}, {"measurement": "Salt screening result (slurry crystallization)", "setting": "[1]; 1.0 equiv. L-aspartic acid, Acetone", "value": "− (physical mixtures (Free form, counter ions, or physical mixtures)"}, {"measurement": "Salt screening result (slurry crystallization)", "setting": "[1]; 1.0 equiv. L-aspartic acid, Isopropyl acetate", "value": "− (physical mixtures (Free form, counter ions, or physical mixtures)"}, {"measurement": "Salt screening result (slurry crystallization)", "setting": "[1]; 1.0 equiv. L-aspartic acid, MeOH", "value": "− (physical mixtures (Free form, counter ions, or physical mixtures)"}, {"measurement": "Salt screening result (slurry crystallization)", "setting": "[1]; 1.0 equiv. L-glutamic acid, Acetone", "value": "− (physical mixtures (Free form, counter ions, or physical mixtures)"}, {"measurement": "Salt screening result (slurry crystallization)", "setting": "[1]; 1.0 equiv. L-glutamic acid, Isopropyl acetate", "value": "− (physical mixtures (Free form, counter ions, or physical mixtures)"}, {"measurement": "Salt screening result (slurry crystallization)", "setting": "[1]; 1.0 equiv. L-glutamic acid, MeOH", "value": "− (physical mixtures (Free form, counter ions, or physical mixtures)"}, {"measurement": "Salt screening result (slurry crystallization)", "setting": "[1]; 1.0 equiv. L-malic acid, Acetone", "value": "thin suspension"}, {"measurement": "Salt screening result (anti-solvent)", "setting": "[1]; 1.0 equiv. L-malic acid, Acetone/MTBE", "value": "−(I-1 Form B) (Free form, counter ions, or physical mixtures)"}, {"measurement": "Salt screening result (slurry crystallization)", "setting": "[1]; 1.0 equiv. L-malic acid, Isopropyl acetate", "value": "− (I-1 Form A) (Free form, counter ions, or physical mixtures)"}, {"measurement": "Salt screening result (slurry crystallization)", "setting": "[1]; 1.0 equiv. L-malic acid, MeOH", "value": "− (I-1 Form A) (Free form, counter ions, or physical mixtures)"}, {"measurement": "Salt screening result (slurry crystallization)", "setting": "[1]; 1.0 equiv. L-tartaric acid, Acetone", "value": "thin suspension"}, {"measurement": "Salt screening result (anti-solvent)", "setting": "[1]; 1.0 equiv. L-tartaric acid, Acetone/MTBE", "value": "−(I-1 Form B) (Free form, counter ions, or physical mixtures)"}, {"measurement": "Salt screening result (slurry crystallization)", "setting": "[1]; 1.0 equiv. L-tartaric acid, Isopropyl acetate", "value": "− (I-1 Form A) (Free form, counter ions, or physical mixtures)"}, {"measurement": "Salt screening result (slurry crystallization)", "setting": "[1]; 1.0 equiv. L-tartaric acid, MeOH", "value": "− (I-1 Form A) (Free form, counter ions, or physical mixtures)"}, {"measurement": "Salt screening result (slurry crystallization)", "setting": "[1]; 1.0 equiv. citric acid, Acetone", "value": "thin suspension"}, {"measurement": "Salt screening result (anti-solvent)", "setting": "[1]; 1.0 equiv. citric acid, Acetone/MTBE", "value": "−(I-1 Form B) (Free form, counter ions, or physical mixtures)"}, {"measurement": "Salt screening result (slurry crystallization)", "setting": "[1]; 1.0 equiv. citric acid, Isopropyl acetate", "value": "− (I-1 Form A) (Free form, counter ions, or physical mixtures)"}, {"measurement": "Salt screening result (slurry crystallization)", "setting": "[1]; 1.0 equiv. citric acid, MeOH", "value": "− (I-1 Form A) (Free form, counter ions, or physical mixtures)"}]}
